The results in this text go back to patent US10087192B2, “2-(het)aryl-substituted fused bicyclic heterocycle derivatives as pesticides” (BAYER CROPSCIENCE AKTIENGESELLSCHSAFT, priority 2015, dated 2018).

Structures are written as SMILES.

Holding throughout (type): in vivo
One assay relates to Spodoptera frugiperda. In words: Spodoptera frugiperda spray test (maize leaf discs). Conditions: after 7 days, caterpillars on maize leaf discs. How it is done:
Spodoptera frugiperda—Spray Test Solvent: 78.0 parts by weight of acetone • • 1.5 parts by weight of dimethylformamide Emulsifier: alkylaryl polyglycol ether […] To produce further test concentrations, the preparation is diluted with emulsifier-containing water. Leaf discs of maize (Zea mays) are sprayed with an active compound preparation of the desired concentration and, after drying, populated with caterpillars of the armyworm (Spodoptera frugiperda).

A further assay deals with Myzus persicae. In words: Myzus persicae spray test (Chinese cabbage leaf discs). Conditions: after 6 days. As for the experimental part: Myzus persicae—Spray Test Solvent: 78 parts by weight of acetone • • 1.5 parts by weight of dimethylformamide Emulsifier: alkylaryl polyglycol ether […] To produce further test concentrations, the preparation is diluted with emulsifier-containing water. Discs of Chinese cabbage leaves (Brassica pekinensis) infested by all stages of the green peach aphid (Myzus persicae) are sprayed with an active compound preparation of the desired concentration.

Another assay has as its system Phaedon cochleariae. In words: Phaedon cochleariae spray test. Conditions: after 7 days, larvae on Chinese cabbage leaf discs. As for the experimental part: Phaedon cochleariae—Spray Test
Solvent: 78.0 parts by weight of acetone • • 1.5 parts by weight of dimethylformamide
Emulsifier: alkylaryl polyglycol ether
To produce a suitable preparation of active compound, 1 part by weight of active compound is dissolved using the stated parts by weight of solvent and made up with water containing an emulsifier concentration of 1000 ppm until the desired concentration is attained. To produce further test concentrations, the preparation is diluted with emulsifier-containing water.
After 7 days, the efficacy in % is determined. 100% means that all the beetle larvae have been killed; 0% means that no beetle larvae have been killed.

The test system of a further assay is Ctenocephalides felis. In words: Ctenocephalides felis oral test. Conditions: 100 ppm in citrated cattle blood, after 2 days. The source says: Ctenocephalides felis—Oral Test Solvent: dimethyl sulphoxide […] Dilution with citrated cattle blood gives the desired concentration. About 20 unfed adult cat fleas (Ctenocephalides felis) are placed into a chamber which is closed at the top and bottom with gauze. A metal cylinder whose bottom end is closed with parafilm is placed onto the chamber. The cylinder contains the blood/active compound preparation, which can be imbibed by the fleas through the parafilm membrane.

Another assay relates to Lucilia cuprina. In words: Lucilia cuprina test. Conditions: 100 ppm, after 2 days, L1 larvae. As for the experimental part: Solvent: dimethyl sulphoxide
To produce a suitable preparation of active compound, 10 mg of active compound are mixed with 0.5 ml of dimethyl sulphoxide, and the concentrate is diluted with water to the desired concentration.
About 20 L1 larvae of the Australian sheep blowfly (Lucilia cuprina) are transferred into a test vessel containing minced horsemeat and the active compound preparation of the desired concentration.
After 2 days, the kill in % is determined. 100% means that all the larvae have been killed; 0% means that no larvae have been killed.

Regarding `CCS(=O)(=O)c1ccc(-n2nnn(CC(F)(F)C(F)(F)F)c2=O)nc1-c1nc2cc(C(F)(F)F)ncc2n1C` [Example 56], the efficacy in the assay on Spodoptera frugiperda (500 g/ha), with Myzus persicae (500 g/ha) and in the assay with Phaedon cochleariae (500 g/ha) was 100% each time.
With `CCS(=O)(=O)c1ccc(-c2sccc2Cl)nc1-c1nc2cc(C(F)(F)F)ncc2n1C` [Example 85], the efficacy with Spodoptera frugiperda (500 g/ha) is on record as 100%.
`CCS(=O)(=O)c1ccc(-c2cc(Cl)cs2)nc1-c1nc2cc(C(F)(F)F)ncc2n1C` [Example 77] returned an efficacy in the assay with Spodoptera frugiperda (500 g/ha) of 100%.
In the case of `CCS(=O)(=O)c1ccc(-c2cnn(C)c2)nc1-c1nc2cc(C(F)(F)F)ncc2n1C` [Example 83], the efficacy in the assay on Spodoptera frugiperda (500 g/ha) is reported as 100%; in the assay on Myzus persicae (500 g/ha) it was 90%; in the assay with Phaedon cochleariae (500 g/ha) it was 100%.
In the case of `CCS(=O)(=O)c1ccc(-n2cc(CS(C)(=O)=O)cn2)nc1-c1nc2cc(C(F)(F)F)ncc2n1C` [Example 60], the figures for the “efficacy (kill)” value with Ctenocephalides felis and in the assay on Lucilia cuprina were 100% and 95%, respectively. In the assay on Phaedon cochleariae (500 g/ha), this molecule had an efficacy of 100%.
With `CCS(=O)(=O)c1ccc(-c2cccnc2)nc1-c1nc2cc(C(F)(F)F)ncc2n1C` [Example 72], the efficacy in the assay with Myzus persicae (500 g/ha) came to 90%; in the assay on Phaedon cochleariae (100 g/ha), 83%.
Consider `CCS(=O)(=O)c1ccc(-c2cc[nH]c2)nc1-c1nc2cc(C(F)(F)F)ncc2n1C` [Example 73], for which the efficacy amounted to 90% with Myzus persicae (500 g/ha) and 100% in the assay with Phaedon cochleariae (500 g/ha).
`CCS(=O)(=O)c1ccc(-n2nnc(C(F)(F)F)n2)nc1-c1nc2cc(C(F)(F)F)ncc2n1C` [Example 55]: the efficacy with Spodoptera frugiperda (500 g/ha) is 100%; in the assay on Myzus persicae (500 g/ha) it was 90%; in the assay with Phaedon cochleariae (500 g/ha), 100%.
In turn, `CCS(=O)(=O)c1ccc(-n2ccc(COC)n2)nc1-c1nc2cc(C(F)(F)F)ncc2n1C` [Example 10] came in with an efficacy in the assay with Myzus persicae (500 g/ha) of 90%. In addition, the “efficacy (kill)” value in the assay with Lucilia cuprina is reported as 100%.
With `CCS(=O)(=O)c1ccc(-n2ccc(Cl)n2)nc1-c1nc2cc(C(F)(F)F)ncc2n1C` [Example 9], the efficacy in the assay on Spodoptera frugiperda (100 g/ha) came to 83%; in the assay on Phaedon cochleariae (500 g/ha), 100%.
For `CCS(=O)(=O)c1ccc(-n2nnn(C)c2=O)nc1-c1nc2cc(C(F)(F)F)ncc2n1C` [Example 46], the efficacy in the assay with Spodoptera frugiperda (500 g/ha) and in the assay on Phaedon cochleariae (500 g/ha) was 100% throughout.
`CCS(=O)(=O)c1ccc(-n2ccc(C(=O)NC)n2)nc1-c1nc2cc(C(F)(F)F)ncc2n1C` [Example 12] showed an efficacy in the assay with Myzus persicae (500 g/ha) of 90%.
Take `CCS(=O)(=O)c1ccc(-n2cnc(C(F)(F)F)c2)nc1-c1nc2cc(C(F)(F)F)ncc2n1C` [Example 27]: the “efficacy (kill)” value in the assay on Ctenocephalides felis is recorded as 95%. Also, the efficacy with Phaedon cochleariae (500 g/ha) was 100%.
For the molecule `CCS(=O)(=O)c1ccc(-c2cn[nH]c2)nc1-c1nc2cc(C(F)(F)F)ncc2n1C` [Example 84], the efficacy in the assay with Spodoptera frugiperda (500 g/ha) was 100%; in the assay on Phaedon cochleariae (500 g/ha), 83%.
In the case of `CCS(=O)(=O)c1ccc(N2CCSC2=O)nc1-c1nc2cc(C(F)(F)F)ncc2n1C` [Example 42], the efficacy came out at 90% in the assay with Myzus persicae (500 g/ha) and 100% with Phaedon cochleariae (500 g/ha).
For the molecule `CCS(=O)(=O)c1ccc(-n2cc(S(C)(=O)=O)cn2)nc1-c1nc2cc(C(F)(F)F)ncc2n1C` [Example 3], the “efficacy (kill)” value in the assay on Ctenocephalides felis and with Lucilia cuprina was 100% throughout. Moreover, the efficacy in the assay with Myzus persicae (500 g/ha) is on record as 90%; in the assay on Phaedon cochleariae (500 g/ha), 100%.
As to `CCS(=O)(=O)c1ccc(-n2cc(F)cn2)nc1-c1nc2cc(C(F)(F)F)ncc2n1C` [Example 28], the efficacy with Spodoptera frugiperda (100 g/ha) and with Phaedon cochleariae (100 g/ha) was 100% in each case. Besides, the entries for the “efficacy (kill)” value in the assay with Ctenocephalides felis and in the assay with Lucilia cuprina were 98% and 100%, respectively.
For `CCS(=O)(=O)c1ccc(-n2ccc(SC(F)(F)F)c2)nc1-c1nc2cc(C(F)(F)F)ncc2n1C` [Example 2], the “efficacy (kill)” value in the assay with Ctenocephalides felis and in the assay on Lucilia cuprina was 100% in each case. The efficacy in the assay on Myzus persicae (500 g/ha) is listed as 90%; with Phaedon cochleariae (500 g/ha), 100%.
For `CCS(=O)(=O)c1ccc(-n2nc(C)[nH]c2=O)nc1-c1nc2cc(C(F)(F)F)ncc2n1C` [Example 48], the efficacy is 100% in the assay on Spodoptera frugiperda (500 g/ha) and 83% with Phaedon cochleariae (500 g/ha).
Turning to `CCS(=O)(=O)c1ccc(-n2c(SC)nn(C)c2=O)nc1-c1nc2cc(C(F)(F)F)ncc2n1C` [Example 58], the efficacy with Phaedon cochleariae (500 g/ha) worked out at 83%.
In the case of `CCS(=O)(=O)c1ccc(-n2nnn(CC(F)(F)F)c2=O)nc1-c1nc2cc(C(F)(F)F)ncc2n1C` [Example 52], the efficacy with Myzus persicae (500 g/ha) turned out to be 90%; in the assay on Phaedon cochleariae (500 g/ha), 100%.
On to `CCS(=O)(=O)c1ccc(-n2cccn2)nc1-c1nc2cc(C(F)(F)F)ncc2n1C` [Example 21], for which the efficacy in the assay on Spodoptera frugiperda (100 g/ha) came to 100%; in the assay with Phaedon cochleariae (20 g/ha) it was 83%.
`CCS(=O)(=O)c1ccc(N2CCSC2)nc1-c1nc2cc(C(F)(F)F)ncc2n1C` [Example 50]: the efficacy in the assay with Myzus persicae (500 g/ha) and in the assay on Phaedon cochleariae (500 g/ha) was 100% throughout.
`CCS(=O)(=O)c1ccc(-n2ccn(C)c2=O)nc1-c1nc2cc(C(F)(F)F)ncc2n1C` [Example 39]: the efficacy in the assay with Myzus persicae (20 g/ha) was found to be 90%; in the assay on Phaedon cochleariae (500 g/ha), 100%.
For the molecule `CCS(=O)(=O)c1ccc(-n2ccc(SC)n2)nc1-c1nc2cc(C(F)(F)F)ncc2n1C` [Example 29], the efficacy with Myzus persicae (500 g/ha) came out at 90%; with Phaedon cochleariae (500 g/ha), 100%.
As for `CCS(=O)(=O)c1ccc(-c2ccn[nH]2)nc1-c1nc2cc(C(F)(F)F)ncc2n1C` [Example 75], the efficacy with Spodoptera frugiperda (500 g/ha) and in the assay with Phaedon cochleariae (500 g/ha) was 100% throughout.
With `CCS(=O)(=O)c1ccc(-n2cc(Cl)cn2)nc1-c1nc2cc(C(F)(F)F)ncc2n1C` [Example 6], the efficacy with Spodoptera frugiperda (100 g/ha) was determined as 100%. The “efficacy (kill)” value in the assay with Ctenocephalides felis is listed as 95%.
`CCS(=O)(=O)c1ccc(-n2cc(CSC)cn2)nc1-c1nc2cc(C(F)(F)F)ncc2n1C` [Example 38] returned an efficacy in the assay with Phaedon cochleariae (500 g/ha) of 100%.
On to `CCS(=O)(=O)c1ccc(-n2cnc(SC)n2)nc1-c1nc2cc(C(F)(F)F)ncc2n1C` [Example 15], for which the efficacy in the assay on Spodoptera frugiperda (500 g/ha) worked out at 83%; in the assay with Myzus persicae (500 g/ha) it was 90%; in the assay on Phaedon cochleariae (500 g/ha), 100%.
In the assay on Phaedon cochleariae (500 g/ha), `CCS(=O)(=O)c1ccc(-n2ccc(CSC)n2)nc1-c1nc2cc(C(F)(F)F)ncc2n1C` [Example 47] showed an efficacy of 100%.
Take `CCS(=O)(=O)c1ccc(-n2ccc(S(C)(=O)=O)n2)nc1-c1nc2cc(C(F)(F)F)ncc2n1C` [Example 35]: the “efficacy (kill)” value in the assay on Ctenocephalides felis and with Lucilia cuprina was 100% in each case. The efficacy came out at 90% with Myzus persicae (500 g/ha) and 100% in the assay on Phaedon cochleariae (500 g/ha).
With `CCS(=O)(=O)c1ccc(-n2cc(C(=O)NC)cn2)nc1-c1nc2cc(C(F)(F)F)ncc2n1C` [Example 4], the “efficacy (kill)” value in the assay with Ctenocephalides felis and in the assay on Lucilia cuprina was 100% in each case. For the same molecule, the efficacy in the assay with Myzus persicae (500 g/ha) is recorded as 90%; with Phaedon cochleariae (500 g/ha) it was 100%.
For the molecule `CCS(=O)(=O)c1ccc(-n2ccc(NC(C)=O)n2)nc1-c1nc2cc(C(F)(F)F)ncc2n1C` [Example 23], the efficacy in the assay on Myzus persicae (500 g/ha) is given as 90%; with Phaedon cochleariae (500 g/ha) it was 100%. Further, in the assay with Lucilia cuprina, the “efficacy (kill)” value stood at 100%.
With `CCS(=O)(=O)c1ccc(-c2ccccn2)nc1-c1nc2cc(C(F)(F)F)ncc2n1C` [Example 71], the efficacy in the assay with Spodoptera frugiperda (500 g/ha) and with Phaedon cochleariae (500 g/ha) was 100% each time.
Take `CCS(=O)(=O)c1ccc(-n2cc(SC)cn2)nc1-c1nc2cc(C(F)(F)F)ncc2n1C` [Example 16]: the efficacy in the assay with Spodoptera frugiperda (500 g/ha), in the assay with Myzus persicae (500 g/ha) and with Phaedon cochleariae (500 g/ha) was 100% in each case.
